{"source": "patent US8697639B2", "about": "“Compositions and methods for treating bacteria” (Biosynexus Incorporated, priority 2005, dated 2014)", "key": {"S. aureus [1]": {"tested_on": "S. aureus", "assay": "Mouse skin infection model: S. aureus infection in abraded mouse skin treated with topical ointment", "assay_type": "in vivo", "conditions": "for synergy with mupirocin in the skin infection model (in words): combination with mupirocin; for synergy with mupirocin in the skin infection model (in words) / synergy or additive effect with nisin in the skin infection model (in words): superficial wound model; for synergy or additive effect with nisin in the skin infection model (in words): combination with nisin", "protocol": "(§1) Mouse Skin Infection Model: An overnight culture of S. aureus grown in tryptic soy broth (SA8; range from 1 to 6×10^9 CFUs/mL) was centrifuged at 4000×g for 10 minutes and resuspended in an equal volume of phosphate buffered saline (PBS). The bacteria were diluted to a percent transmittance of 40 (Spectronic 20D+) and diluted a subsequent 1:1000 in PBS for a final bacteria concentration of about 3×10^5. SKH1 (hrhr) hairless mice (Charles River) were sedated with 0.2 mL of ketamine (80 mg/kg) and xylazine (32 mg/kg) delivered intraperitoneally. The upper back of the mice were scrubbed with a 70% alcohol wipe and allowed to dry. Fine abrasions were made on the backs of the mice between the shoulders using 150 grit sandpaper. Bacteria were swabbed over the abraded area with a sterile, cotton-tipped applicator until the area was saturated with the solution.\nTopical Ointment: 74 g of PEG 400 and 24 g of PEG 3350 were added to a 250 mL glass beaker and heated until all of the PEG 3350 was melted. […] Lysostaphin was first dissolved to a concentration of about 150 mg/mL in DI water before mixing into the ointment to give a final concentration of 2% (w/w).\nTreatment of Infected Skin with Topical Ointment: Treatments aimed to eradicate S. aureus skin infections in the mouse model were started on the morning after infection (Day 1). […] The mice were sacrificed by CO2 asphyxiation on the morning of Day 3 and a 0.5-cm^2 patch of skin around the infected area was excised. The skin sample was disected and placed into a test tube containing 1 mL of 5 mg/mL proteinase K, 20 mg/mL esterase, and 20 mg/mL activated charcoal in PBS to neutralize the activity of the antibacterial agents. Bacteria were dislodged from the skin sample by sonication: 2 minute treatments per sample with alternating 5 seconds at 3 W and 5 seconds at 0 W in a Virsonic 600 with microtip (VirTis). After mixing by vortex, 50 μL of each sample was streaked onto blood agar plates, incubated at 37° C. overnight, and the colonies were counted and compared to untreated controls.\nFor the following data, except where noted in FIG. 2, all antibiotic formulations were in a common polyethylene glycol (PEG) ointment (PEG 400 plus PEG 3350)."}, "[2]": {"tested_on": "S. aureus strain resistant to mupirocin", "assay": "Mupirocin-resistant S. aureus infection in abraded mouse skin", "assay_type": "in vivo", "conditions": "FIG. 3", "protocol": "as §1\nTopical Ointment: 74 g of PEG 400 and 24 g of PEG 3350 were added to a 250 mL glass beaker and heated until all of the PEG 3350 was melted. […]\nTreatment of Infected Skin with Topical Ointment: Treatments aimed to eradicate S. aureus skin infections in the mouse model were started on the morning after infection (Day 1). […] After mixing by vortex, 50 μL of each sample was streaked onto blood agar plates, incubated at 37° C. overnight, and the colonies were counted and compared to untreated controls."}, "P. aeruginosa [3]": {"tested_on": "P. aeruginosa", "assay": "P. aeruginosa infection in abraded mouse skin", "assay_type": "in vivo", "conditions": "FIG. 4"}, "[4]": {"tested_on": "Staphylococcus aureus ATCC #6538", "assay": "Pig partial thickness wounds inoculated with Staphylococcus aureus", "assay_type": "in vivo"}, "S. aureus [5]": {"tested_on": "S. aureus", "assay": "In vitro MIC of nisin alone or in combination (log reduction of viable S. aureus)", "assay_type": "cell-based", "conditions": "FIG. 11", "protocol": "In order to determine if nisin could function in a synergistic way with other antimicrobials to treat (e.g., kill and/or inhibit growth of) bacteria in vitro, the minimum inhibitory concentration (MIC) of nisin alone or nisin in combination with either mupirocin, neomycin or gentamicin were tested. The MIC was determined by calculating the log reduction of viable S. aureus following incubation with the amounts of nisin and other antimicrobials as indicated in FIG. 11."}, "S. aureus [6]": {"tested_on": "S. aureus", "assay": "Suture skin infection model (deep tissue infection) in mouse", "assay_type": "in vivo", "conditions": "deep cut, FIG. 13", "protocol": "It was determined whether nisin and mupirocin, either alone or in combination with each other, would be able to treat S. aureus in a deep tissue infection model. A suture skin infection model was generated in which a deep cut (e.g., one needing sutures to close) was made in a mouse and S. aureus introduced into the incision. […] Thus, a combination of nisin and mupirocin can be used to treat a deep tissue infection as well as a […] infection."}, "P. aeruginosa [7]": {"tested_on": "P. aeruginosa", "conditions": "previously shown; cited from earlier work"}}, "note": "Bridge positions count the residues as written; N and C are the ends. Square brackets hold non-standard residues; d marks the D form. Peptide text beside a SMILES is read from it. * marks the point of attachment. Ileψ(thiazoline)Cys = CC[C@H](C)[C@H](N)C1=N[C@H](C(=O)*)CS1; dOrn = NCCC[C@@H](N)C(=O)O"}
{"compound": "CC[C@H](C)[C@H](N)C1=N[C@H](C(=O)N[C@@H](CC(C)C)C(=O)N[C@H](CCC(=O)O)C(=O)N[C@H](C(=O)N[C@H]2CCCCNC(=O)[C@H](CC(N)=O)NC(=O)[C@@H](CC(=O)O)NC(=O)[C@H](Cc3cnc[nH]3)NC(=O)[C@@H](Cc3ccccc3)NC(=O)[C@H]([C@@H](C)CC)NC(=O)[C@@H](CCCN)NC2=O)[C@@H](C)CC)CS1", "note": "[bacitracin] ({Ileψ(thiazoline)Cys}-L[dE]IK[dOrn]I[dF]H[dD]N; lactam 4-C)", "values": [{"measurement": "synergy with mupirocin in the skin infection model (in words)", "setting": "S. aureus [1]", "result": "did not synergize"}]}
{"compound": "C/C(=C\\C(=O)OCCCCCCCCC(=O)O)C[C@@H]1OC[C@H](C[C@@H]2O[C@H]2[C@@H](C)[C@H](C)O)[C@@H](O)[C@H]1O", "note": "[mupirocin]", "values": [{"measurement": "decrease of infectious CFUs", "setting": "S. aureus [1]; abraded mouse skin, PEG ointment 3 times a day on Days 1 and 2, FIG. 1, for combinations: residual infections", "result": 3, "unit": "logs"}, {"measurement": "activity against mupirocin-resistant S. aureus (in words)", "setting": "[2]", "result": "minimal activity"}, {"measurement": "activity relative to nisin formulation (in words)", "setting": "P. aeruginosa [3]", "result": "does not add any additional activity"}, {"measurement": "Staphylococcus aureus recovered from wounds", "setting": "[4]; Day 7 post treatment, FIG. 8", "result": 1.63, "unit": "Log cfu/ml"}, {"measurement": "Staphylococcus aureus recovered from wounds", "setting": "[4]; two days after initial treatment, treated twice per day, FIG. 6", "result": "4.96±0.8", "unit": "Log CFU/ml"}, {"measurement": "synergy with nisin in vitro (in words)", "setting": "S. aureus [5]", "result": "does not synergize"}, {"measurement": "efficacy in treating S. aureus in suture infection model (in words)", "setting": "S. aureus [6]", "result": "very little efficacy"}, {"measurement": "activity against P. aeruginosa (in words)", "setting": "P. aeruginosa [7]", "result": "poor activity"}]}
{"compound": "gallidermin", "values": [{"measurement": "synergy with mupirocin in the skin infection model (in words)", "setting": "S. aureus [1]", "result": "did synergize"}, {"measurement": "synergy or additive effect with nisin in the skin infection model (in words)", "setting": "S. aureus [1]", "result": "did not synergize"}]}
{"compound": "gentamicin", "values": [{"measurement": "synergy or additive effect with nisin in the skin infection model (in words)", "setting": "S. aureus [1]", "result": "did synergize"}, {"measurement": "synergy with nisin in vitro (in words)", "setting": "S. aureus [5]", "result": "does not synergize"}]}
{"compound": "neomycin", "values": [{"measurement": "synergy or additive effect with nisin in the skin infection model (in words)", "setting": "S. aureus [1]", "result": "did not synergize"}, {"measurement": "synergy with nisin in vitro (in words)", "setting": "S. aureus [5]", "result": "does not synergize"}]}
